Experimental data from patent US9695155B2, “Herbicidal substituted pyrimidinyloxy benzene compounds” (E. I. DU PONT DE NEMOURS AND COMPANY, priority 2013, dated 2017).

How the values were obtained:
barnyardgrass = assay: Test A preemergence; type: in vivo, Echinochloa crus-galli
How it was run: (§1)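 Scoring: eye-based comparison with untreated controls, 0 for no effect through 100 for complete control, at about day 10. Treatments: directed soil spray preemergence; foliar spray postemergence on 2–10 cm plants at the one- to two-leaf stage. Medium: loam soil with sand.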

pigweed [1] = assay: Test A preemergence; type: in vivo, Amaranthus retroflexus
How it was run: as §1

velvetleaf = assay: Test A preemergence; type: in vivo, Abutilon theophrasti
How it was run: as §1

large (Lg) crabgrass [2] = assay: Test A postemergence; type: in vivo, Digitaria sanguinalis; details: 0 to 100 scale where 0 is no effect and 100 is complete control
How it was run: as §1

giant foxtail [3] = assay: Test A postemergence; type: in vivo, Setaria faberii; details: Setaria faberi, post-emergence, 240 h, 0 to 100 scale where 0 is no effect and 100 is complete control
How it was run: as §1

morningglory = assay: Test A postemergence; type: in vivo, Ipomoea spp.; details: 0 to 100 scale where 0 is no effect and 100 is complete control
How it was run: as §1

pigweed [4] = assay: Test A postemergence; type: in vivo, Amaranthus retroflexus; details: Amaranthus retroflexus, post-emergence, 0 to 100 scale where 0 is no effect and 100 is complete control
How it was run: as §1

corn [5] = assay: Test A postemergence; type: in vivo, Zea mays; details: Zea mays, post-emergence, 240 h, 0 to 100 scale where 0 is no effect and 100 is complete control
How it was run: as §1

large (Lg) crabgrass [6] = assay: Test C preemergence; type: in vivo, Digitaria sanguinalis; details: Digitaria sanguinalis, pre-emergence
How it was run: (§2)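 Rated visually on 0–100 (100 = complete control) after 13–15 days under glass. Treatments went onto freshly seeded loam/sand soil or onto emerged plants at the 1- to 4-leaf stage, using a surfactant-containing solvent formulation.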

johnsongrass [7] = assay: Test C preemergence; type: in vivo, Sorghum halepense; details: Sorghum halepense, pre-emergence
How it was run: as §2

lambsquarters = assay: Test C preemergence; type: in vivo, Chenopodium album; details: Chenopodium album, pre-emergence
How it was run: as §2

ragweed = assay: Test C preemergence; type: in vivo, Ambrosia elatior; details: Ambrosia artemisiifolia, pre-emergence
How it was run: as §2

galium = assay: Test C postemergence; type: in vivo, Galium aparine; details: Galium, post-emergence
How it was run: as §2

corn [8] = assay: Test C postemergence; type: in vivo, Zea mays; details: Zea mays, post-emergence, postemergence
How it was run: as §2

giant foxtail [9] = assay: Test C postemergence; type: in vivo, Setaria faberii; details: Setaria faberi, post-emergence
How it was run: as §2

johnsongrass [10] = assay: Test C postemergence; type: in vivo, Sorghum halepense; details: Sorghum halepense, post-emergence
How it was run: as §2

kochia = assay: Test C postemergence; type: in vivo, Kochia scoparia; details: Bassia scoparia, post-emergence
How it was run: as §2

chickweed = assay: Test C postemergence; type: in vivo, Stellaria media; details: Stellaria media, post-emergence
How it was run: as §2

FC(F)c1cccc(Oc2ncc(Cl)cn2)c1-n1cc(Br)cn1 [Compound 194, 2-[2-(4-bromo-1H-pyrazol-1-yl)-3-(difluoromethyl)phenoxy]-5-chloropyrimidine]
Barnyardgrass plant response rating (0 to 100 scale, 0 is no effect, 100 is complete control) (barnyardgrass; 125 g ai/ha): 80
pest or weed control at 500 g/ha (barnyardgrass; Echinochloa crus-galli, pre-emergence, 240 h, 500 g ai/ha, 0 to 100 scale where 0 is no effect and 100 is complete control, read-out: Barnyardgrass plant response rating): 100%
Pigweed plant response rating (0 to 100 scale) (pigweed [1]; 125 g ai/ha): 100
pest or weed control at 500 g/ha (pigweed [1]; Amaranthus retroflexus, pre-emergence, 240 h, 500 g ai/ha, 0 to 100 scale where 0 is no effect and 100 is complete control, read-out: Pigweed plant response rating): 100%
Velvetleaf plant response rating (0 to 100 scale) (velvetleaf; 125 g ai/ha): 80
pest or weed control at 500 g/ha (velvetleaf; Abutilon theophrasti, pre-emergence, 240 h, 500 g ai/ha, 0 to 100 scale where 0 is no effect and 100 is complete control, read-out: Velvetleaf plant response rating): 100%
Crabgrass, Large plant response rating (large (Lg) crabgrass [2]; 125 g ai/ha): 90
pest or weed control at 500 g/ha (large (Lg) crabgrass [2]; Digitaria sanguinalis, post-emergence, 240 h, 500 g ai/ha, read-out: Plant response rating, Crabgrass, Large): 100%
pest or weed control at 125 g/ha (giant foxtail [3]; 125 g ai/ha, read-out: Foxtail, Giant plant response rating): 90%
pest or weed control at 500 g/ha (giant foxtail [3]; 500 g ai/ha, read-out: Plant response rating, Foxtail, Giant): 100%
Morningglory plant response rating (morningglory; 125 g ai/ha): 90
pest or weed control at 500 g/ha (morningglory; Ipomoea, post-emergence, 240 h, 500 g ai/ha, read-out: Plant response rating, Morningglory): 100%
pest or weed control at 500 g/ha (pigweed [4]; 500 g ai/ha, read-out: Plant response rating, Pigweed): 100%
pest or weed control at 125 g/ha (pigweed [4]; 240 h, 125 g ai/ha, read-out: Pigweed plant response rating): 100%
plant injury at 125 g/ha (corn [5]; 125 g ai/ha, read-out: Corn plant response rating): 30%
Corn plant response rating (crop injury, 0 = no effect, 100 = complete kill) at 500 g/ha (corn [5]; 500 g ai/ha): 60%
pest or weed control at 125 g/ha (large (Lg) crabgrass [6]; 125 g ai/ha, preemergence, scale 0 (no effect) to 100 (complete control), read-out: Crabgrass, Large plant response rating): 100%
pest or weed control at 250 g/ha (large (Lg) crabgrass [6]; 250 g ai/ha, preemergence, scale 0 (no effect) to 100 (complete control), read-out: Crabgrass, Large plant response rating): 100%
pest or weed control at 62 g/ha (large (Lg) crabgrass [6]; Preemergence, 62 g ai/ha, scale 0 to 100, 0 no effect, 100 complete control, read-out: Plant response rating, Crabgrass, Large): 98%
pest or weed control at 125 g/ha (johnsongrass [7]; 125 g ai/ha, preemergence, scale 0 (no effect) to 100 (complete control), read-out: Johnsongrass plant response rating): 80%
pest or weed control at 250 g/ha (johnsongrass [7]; 250 g ai/ha, preemergence, scale 0 (no effect) to 100 (complete control), read-out: Johnsongrass plant response rating): 95%
pest or weed control at 62 g/ha (johnsongrass [7]; Preemergence, 62 g ai/ha, scale 0 to 100, 0 no effect, 100 complete control, read-out: Plant response rating, Johnsongrass): 25%
pest or weed control at 125 g/ha (lambsquarters; 125 g ai/ha, preemergence, scale 0 (no effect) to 100 (complete control), read-out: Lambsquarters plant response rating): 100%
pest or weed control at 250 g/ha (lambsquarters; 250 g ai/ha, preemergence, scale 0 (no effect) to 100 (complete control), read-out: Lambsquarters plant response rating): 100%
pest or weed control at 62 g/ha (lambsquarters; Preemergence, 62 g ai/ha, scale 0 to 100, 0 no effect, 100 complete control, read-out: Plant response rating, Lambsquarters): 100%
pest or weed control at 125 g/ha (ragweed; 125 g ai/ha, preemergence, scale 0 (no effect) to 100 (complete control), read-out: Ragweed plant response rating): 20%
pest or weed control at 250 g/ha (ragweed; 250 g ai/ha, preemergence, scale 0 (no effect) to 100 (complete control), read-out: Ragweed plant response rating): 75%
pest or weed control at 62 g/ha (ragweed; Preemergence, 62 g ai/ha, scale 0 to 100, 0 no effect, 100 complete control, read-out: Plant response rating, Ragweed): 10%
pest or weed control at 31 g/ha (galium; 31 g ai/ha, postemergence, visual rating, scale 0 to 100 (0 no effect, 100 complete control), 13 to 15 days, read-out: Galium plant response rating): 60%
pest or weed control at 125 g/ha (galium; 125 g ai/ha, postemergence, visual rating, scale 0 to 100 (0 no effect, 100 complete control), read-out: Plant response rating, Galium): 85%
pest or weed control at 250 g/ha (galium; 250 g ai/ha, postemergence, read-out: Plant response rating (0 to 100), Galium): 90%
pest or weed control at 62 g/ha (galium; Postemergence, 62 g ai/ha, scale 0 to 100 (0 no effect, 100 complete control), 13 to 15 days, read-out: Plant response rating, Galium): 65%
plant injury at 31 g/ha (corn [8]; 31 g ai/ha, visual rating, scale 0 to 100 (0 no effect, 100 complete control), 13 to 15 days, read-out: Corn plant response rating): 5%
Corn plant response rating (crop injury, 0 = no effect, 100 = complete kill) at 125 g/ha (corn [8]; 125 g ai/ha, visual rating, scale 0 to 100 (0 no effect, 100 complete control)): 25%
plant injury at 250 g/ha (corn [8]; 250 g ai/ha, read-out: Plant response rating (0 to 100), Corn): 30%
pest or weed control at 31 g/ha (giant foxtail [9]; 31 g ai/ha, postemergence, visual rating, scale 0 to 100 (0 no effect, 100 complete control), 13 to 15 days, read-out: Foxtail, Giant plant response rating): 10%
pest or weed control at 125 g/ha (giant foxtail [9]; 125 g ai/ha, postemergence, visual rating, scale 0 to 100 (0 no effect, 100 complete control), read-out: Plant response rating, Foxtail, Giant): 15%
pest or weed control at 250 g/ha (giant foxtail [9]; 250 g ai/ha, postemergence, read-out: Plant response rating (0 to 100), Foxtail, Giant): 15%
pest or weed control at 62 g/ha (giant foxtail [9]; Postemergence, 62 g ai/ha, scale 0 to 100 (0 no effect, 100 complete control), 13 to 15 days, read-out: Plant response rating, Foxtail, Giant): 10%
pest or weed control at 125 g/ha (johnsongrass [10]; 125 g ai/ha, postemergence, visual rating, scale 0 to 100 (0 no effect, 100 complete control), read-out: Plant response rating, Johnsongrass): 25%
pest or weed control at 250 g/ha (johnsongrass [10]; 250 g ai/ha, postemergence, read-out: Plant response rating (0 to 100), Johnsongrass): 35%
pest or weed control at 62 g/ha (johnsongrass [10]; Postemergence, 62 g ai/ha, scale 0 to 100 (0 no effect, 100 complete control), 13 to 15 days, read-out: Plant response rating, Johnsongrass): 5%
pest or weed control at 31 g/ha (kochia; 31 g ai/ha, postemergence, visual rating, scale 0 to 100 (0 no effect, 100 complete control), 13 to 15 days, read-out: Kochia plant response rating): 90%
pest or weed control at 125 g/ha (kochia; 125 g ai/ha, postemergence, visual rating, scale 0 to 100 (0 no effect, 100 complete control), read-out: Plant response rating, Kochia): 90%
pest or weed control at 250 g/ha (kochia; 250 g ai/ha, postemergence, read-out: Plant response rating (0 to 100), Kochia): 95%
pest or weed control at 62 g/ha (kochia; Postemergence, 62 g ai/ha, scale 0 to 100 (0 no effect, 100 complete control), 13 to 15 days, read-out: Plant response rating, Kochia): 90%
pest or weed control at 31 g/ha (chickweed; 31 g ai/ha, postemergence, visual rating, scale 0 to 100 (0 no effect, 100 complete control), 13 to 15 days, read-out: Chickweed plant response rating): 50%
pest or weed control at 125 g/ha (chickweed; 125 g ai/ha, postemergence, visual rating, scale 0 to 100 (0 no effect, 100 complete control), read-out: Plant response rating, Chickweed): 70%
pest or weed control at 250 g/ha (chickweed; 250 g ai/ha, postemergence, read-out: Plant response rating (0 to 100), Chickweed): 85%
pest or weed control at 62 g/ha (chickweed; Postemergence, 62 g ai/ha, scale 0 to 100 (0 no effect, 100 complete control), 13 to 15 days, read-out: Plant response rating, Chickweed): 70%
